Legend:
[1] = test system: brain myelination (myelin water fraction); test: Cross-sectional correlation of infant formula nutrient content with brain myelination (MRI myelin water fraction); format: in vivo, human; conditions: children up to 5 years fed different infant formulas
From the text: This technique provides a quantitative measure, the Myelin Water Fraction (MWF), which is a surrogate marker of myelin content in the brain.
Infants included in this study were drawn from a larger longitudinal study of normal brain and behavioral development: the Brown University Assessment of Myelination and Behavior Across Maturation (BAMBAM). To focus on neurotypical development, children with known potential risk factors for learning, neurologic, or psychiatric disorders were specifically excluded during recruitment and enrollment. Thus, children with in utero alcohol or illicit substance exposure, premature (<37 weeks gestation) or multiple birth, fetal ultrasound abnormalities, complicated pregnancy (e.g., preeclampsia), APGAR scores <8, NICU admission, neurological disorder (e.g., head injury, epilepsy), psychiatric or developmental disorders in the infant, parents or siblings (including maternal depression requiring medication) were excluded. Ongoing screenings, such as the MCAT for autism, or CBCL for behavioral problems, were further used to remove enrolled children with clinically concerning behaviors or overt medical conditions (such as autism spectrum disorders).
A combination of retrospective and prospective data were acquired from parents via detailed medical histories and parental interview on the type of infant formula used, percentage of breastfeeding to formula feeding, and length of exclusive breastfeeding. This information was updated at each study visit, which occurred approximately every 6 months for children under 2 years, and yearly for older children. Using this information, children were categorized into one of 2 groups: #1. Exclusively formula-fed; and #2. Exclusively breastfed for at least 90 days (3 months). Children who were fed a combination of breastmilk and formula within 3 months were excluded from our analysis. Infants within the exclusively formula-fed group were further sub-divided based on parental reports of the main infant formula used throughout the first 3 months. Main formula was defined as that given 90% of the time or more (in the case were parents used an alternate brand during vacation, for example).
Using these criteria, 94 exclusively formula-fed infants and young children were selected into group #1. These included 13 children who received formula #2; 28 who received formula #5; 8 who received formula #3; 39 who received formula #4; 5 who received formula #1 and 1 who received formula #6. A sample of 52 exclusively breast-fed infants were also selected and matched to the over formula-fed group with regards to mean age, gestation duration, birth weight, male:female ratio, ethnicity ratio, maternal education, family size, and number of languages spoken in the home (in addition to English).

[2] = test system: Neural Progenitor Cell (NPCs) from E14 mouse neocortex; test: Monolayer culture NPC proliferation assay; format: cell-based; conditions: Sphingomyelin low dose (Dose 1: 10 nM); 3 days culture
Protocol: (§1) Generation of Neural Progenitor Cell (NPCs) Libraries: • dissociation of E14 mouse neocortex
(§2) E14 pup brains were harvested and placed in ice cold DPBS (1×)+10% Pen/Strep, then they were dissected using a dissecting microscope. From each pup, one brain hemisphere was placed in 2 ml of Neurobasal media/10% P/S/10× Hepes and another brain hemisphere was placed in another tube.
(§3) The tissue from each tube was aseptically and manually dissociate into single cells, neurobasal complete medium was added and centrifuged at 130 G for 5 min. The tissue was then re-suspended in neurobasal complete media with GF and placed in a corning suspension culture dish 100 mm×20 mm (#430591). Cells were passage twice using a 1:3 ratio, after what they were centrifuged (130 g 5 min), resuspended in freezing media (10% DMSO and neurobasal complete media, no GF) and frozen in liquid nitrogen (LN2).
(§4) Vials were remove from LN2, quickly defrosted, and cells were transferred, dropwise, to a 15 mL conical flask. 10 mls of complete neurobasal media was added. Cells were transferred to a suspension culture dish, and placed in an incubator for 2 hours. At 1.5 hours, cells were examined. […]
EDU incorporation was measured using Click-iT® EdU Alexa Fluor® 555 Imaging Kit (Life technologies, #c10338). […]

[3] = test system: Neural Progenitor Cell (NPCs) from E14 mouse neocortex; test: Neurosphere counts in 96-well plates; format: cell-based; conditions: Sphingomyelin Low dose (Dose 1: 10 nM); cells grown for 2 days
Protocol: as §1, §2, §3
as §4, with “examined. Based on the health and number, the number of plates needed was estimated and the appropriate amount of complete neurobasal media was warmed. After 2 hours, cells were put in a 15 mL conical tube and spun at 130 G, 5 min.” for “examined.”

Compound	association of nutrient with myelination (myelin water fraction) over time in the brain [1]	neuronal proliferation, DAPI [2]	number of neurospheres, Average (Mean) [3]
phosphatidylcholine	an association with myelination (myelin water fraction) was observed		
CCCCC/C=C\C/C=C\C/C=C\C/C=C\CCCC(=O)O [AA, arachidonic acid]	an association with myelination (myelin water fraction) was observed		
[Ca+2] [calcium]	an association with myelination (myelin water fraction) was observed		
[P] [phosphorus]	an association with myelination (myelin water fraction) was observed		
vitamin B12	an association with myelination (myelin water fraction) was observed		
[Mg+2] [magnesium]	an association with myelination (myelin water fraction) was observed		
iron	an association with myelination (myelin water fraction) was observed		
Sphingomyelin	an association with myelination (myelin water fraction) was observed	280	94
phosphatidylinositol	an association with myelination (myelin water fraction) was observed		
[Zn] [zinc]	an association with myelination (myelin water fraction) was observed		

From patent US11986445B2, “Nutritional composition and infant formula for promoting myelination of the brain” (SOCIÉTÉ DES PRODUITS NESTLÉ S.A., priority 2015, dated 2024)
